Reference: patent publication US11634447B2 (priority 2012, dated 2023)
Read-outs that look alike come from different tables or passages of the source.

Target: T1, FimH-CRD (Escherichia coli, UniProt P08191)
T1 construct: The first 177 amino acids of the FimH protein are expressed as a fusion protein; thrombin tag (printed as 'fusion protein with thrombin') (cleaved yes); made in house; host or cells: bacteria (pET21b plasmid)
Assay: Competitive binding assay by fluorescence polarization, assay 2 (compounds prepared by a robotics system, plates frozen and thawed)
Design: species or system E. coli
Summary of the method: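 FimH-CRD (residues 1-177, tag removed) at 60 nM competed against 5 nM Alexa 647 mannoside probe in 50 mM Tris-Cl pH 7.0, 100 mM NaCl, 1 mM EDTA, 5 mM β-mercaptoethanol, 0.05% BSA, 2.5% DMSO; 5 h, room temperature, dark. Compounds 0.4 nM-75 μM final, 12-point 3-fold, duplicate; Kd from fluorescence polarization displacement curves. Assay 1: manual dilution; assay 2: robotic dilution, plates frozen/thawed.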

T1 sequence (P08191 22-177): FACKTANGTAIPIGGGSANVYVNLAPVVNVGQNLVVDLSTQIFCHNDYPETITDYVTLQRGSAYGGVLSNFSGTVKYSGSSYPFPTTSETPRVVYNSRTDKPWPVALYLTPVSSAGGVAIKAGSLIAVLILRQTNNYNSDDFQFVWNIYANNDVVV

Compound: OC[C@H]1O[C@H](Cc2ccc(-c3ccc(C[C@H]4O[C@H](CO)[C@@H](O)[C@H](O)[C@@H]4O)cc3)cc2)[C@@H](O)[C@@H](O)[C@@H]1O [Compound 41, ((2R,3S,4R,5S,6R)-2-(Hydroxymethyl)-6-[[4-[4-[[(2R,3S,4R,5S,6R)-3,4,5-trihydroxy-6-(hydroxymethyl)tetrahydropyran-2-yl]methyl]phenyl]phenyl]methyl]tetrahydropyran-3,4,5-triol)]
- Kd (Assay 2 Kd, 5 nM Alexa 647 mannoside probe, 60 nM FimH-CRD, replicate values in one cell): < 5 nM
- Kd (read-out: Assay 2 Kd, 5 nM Alexa 647 mannoside probe, 60 nM FimH-CRD, replicate values in one cell): < 5 nM
